The values that follow come from patent US20240025906A1 (NEURON23, INC., priority 2022, published 2024).

Assay [1] addresses T1, TYK2 JH2 (Homo sapiens, UniProt P29597).
T1 construct: purchased DiscoverX (KINOMEscan KdELECT service); host or cells: E. coli BL21-derived (T7 phage display) or HEK-293
Kind of assay: TYK2 JH2 binding assay (KINOMEscan KdELECT competitive binding). Particulars: TYK2 JH2 domain, DiscoverX KINOMEscan KdELECT (Assay A); read-out: Biochemical TYK2_DiscoverX_JH2_BND_Kd. The essentials:
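JH2-domain fragment, expressed as T7 phage tag in BL21-derived E. coli or DNA-tagged from HEK-293, competed with test compound against bead-immobilized biotinylated ligand in binding buffer (0.9% DMSO). 1 h shaking at room temperature; bound kinase eluted with 0.5 μM free ligand and quantified by qPCR. Kd from 11-point 3-fold dilutions.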

Assay [2] concerns JAK1/TYK2 pSTAT5 (Tyr694/699) in THP-1 cell line. Kind of assay: IFNa-stimulated JAK1/TYK2 pSTAT5 (Tyr694/699) inhibition cellular assay, AlphaLISA. The class given is cell-based. Particulars: Homo sapiens; THP-1 cells, IFNa-stimulated, AlphaLISA (Assay B); read-out: Cellular_THP1_IFNa-pSTATS_TYK2. A digest of the protocol:
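THP-1, 2e4 cells/well, HBSS; cpd 1 h 37 °C (10000–0.04 nM final, 6-fold, 8 pt); IFNa 100 ng/mL added, 30 min; lyse, freeze −80 °C; pSTAT5 AlphaLISA, 615 nm; 4PL IC50, bottom fixed 0, slope −1.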

T1 sequence (P29597 589-875 limits assumed): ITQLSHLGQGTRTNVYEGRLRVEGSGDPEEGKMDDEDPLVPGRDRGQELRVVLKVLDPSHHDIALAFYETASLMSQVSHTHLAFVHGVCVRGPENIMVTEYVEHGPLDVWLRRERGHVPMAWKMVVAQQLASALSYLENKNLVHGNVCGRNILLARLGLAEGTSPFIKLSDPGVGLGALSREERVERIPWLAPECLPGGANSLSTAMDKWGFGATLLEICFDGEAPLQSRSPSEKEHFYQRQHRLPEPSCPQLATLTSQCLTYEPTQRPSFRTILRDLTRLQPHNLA

Regarding `CCOCCc1cccc2nc(-c3cnc(NC)c4cnc(NC(=O)C5CC5)cc34)oc12` [Example 269, N-(5-(7-(2-ethoxyethyl)benzo[d]oxazol-2-yl)-8-(methylamino)-2,7-naphthyridin-3-yl)cyclopropanecarboxamide], the Kd in assay [1] is at most 100 nM. Besides, the IC50 in assay [2] was at most 500 nM.

On to `CNc1ncc(-c2nc3cccc(CCC#N)c3o2)c2cc(NC(=O)C3CC3)ncc12` [Example 270, N-(5-(7-(2-cyanoethyl)benzo[d]oxazol-2-yl)-8-(methylamino)-2,7-naphthyridin-3-yl)cyclopropanecarboxamide], for which the Kd in assay [1] was at most 100 nM. Also, in assay [2], the IC50 was at most 500 nM.

On to `CNc1ncc(-c2nc3cccc(Cc4cocn4)c3o2)c2cc(NC(=O)C3CC3)ncc12` [Example 271, N-(8-(methylamino)-5-(7-(oxazol-4-ylmethyl)benzo[d]oxazol-2-yl)-2,7-naphthyridin-3-yl)cyclopropanecarboxamide], for which the Kd in assay [1] is at most 100 nM. In assay [2], the IC50 is at most 500 nM.

Regarding `CNc1ncc(-c2nc3c(Br)cccc3o2)c2cc(NC(=O)C3CC3)ncc12` [Example 272, N-(5-(4-bromobenzo[d]oxazol-2-yl)-8-(methylamino)-2,7-naphthyridin-3-yl)cyclopropanecarboxamide], the Kd in assay [1] is at most 100 nM. Moreover, the IC50 in assay [2] was at most 500 nM.

Take `CNc1ncc(-c2nc3c(CC#N)cccc3o2)c2cc(NC(=O)C3CC3)ncc12` [Example 273, N-(5-(4-(cyanomethyl)benzo[d]oxazol-2-yl)-8-(methylamino)-2,7-naphthyridin-3-yl)cyclopropanecarboxamide]: in assay [1], the Kd is at most 100 nM. In addition, the IC50 in assay [2] was at most 500 nM.

With `CNc1ncc(-c2nc3ccc(N4CC(OC)C4)cc3o2)c2cc(NC(=O)C3CC3)ncc12` [Example 274, N-(5-(6-(3-methoxyazetidin-1-yl)benzo[d]oxazol-2-yl)-8-(methylamino)-2,7-naphthyridin-3-yl)cyclopropanecarboxamide], in assay [1], the Kd is at most 100 nM. Moreover, in assay [2], the IC50 was at most 500 nM.

In the case of `CNc1ncc(-c2nc3ccc(N4CCO[C@@H](C)C4)cc3o2)c2cc(NC(=O)C3CC3)ncc12` [Example 275, (S)—N-(8-(methylamino)-5-(6-(2-methylmorpholino)benzo[d]oxazol-2-yl)-2,7-naphthyridin-3-yl)cyclopropanecarboxamide], the Kd in assay [1] is at most 100 nM. Further, the IC50 in assay [2] is at most 500 nM.

As to `CNc1ncc(-c2nc3ccc(N4CCO[C@H](C)C4)cc3o2)c2cc(NC(=O)C3CC3)ncc12` [Example 276, (R)—N-(8-(methylamino)-5-(6-(2-methylmorpholino)benzo[d]oxazol-2-yl)-2,7-naphthyridin-3-yl)cyclopropanecarboxamide], in assay [1], the Kd is at most 100 nM. Also, the IC50 in assay [2] is at most 500 nM.

Take `CNc1ncc(-c2nc3cc(N4CCC4)ccc3o2)c2cc(NC(=O)C3CC3)ncc12` [Example 277, N-(5-(5-(azetidin-1-yl)benzo[d]oxazol-2-yl)-8-(methylamino)-2,7-naphthyridin-3-yl)cyclopropanecarboxamide]: in assay [1], the Kd was at most 100 nM. Further, in assay [2], the IC50 was at most 500 nM.

In the case of `CNc1ncc(-c2nc3cc(N4CCC4COC)ccc3o2)c2cc(NC(=O)C3CC3)ncc12` (stereo not shown) [Example 278, N-(5-(5-(2-(methoxymethyl)azetidin-1-yl)benzo[d]oxazol-2-y1)-8-(methylamino)-2,7-naphthyridin-3-yl)cyclopropanecarboxamide], the Kd in assay [1] was at most 100 nM. For the same compound, the IC50 in assay [2] was at most 500 nM.

For the compound `CNc1ncc(-c2nc3cc(N4CC(F)(F)C4)ccc3o2)c2cc(NC(=O)C3CC3)ncc12` [Example 279, N-(5-(5-(3,3-difluoroazetidin-1-yl)benzo[d]oxazol-2-yl)-8-(methylamino)-2,7-naphthyridin-3-yl)cyclopropanecarboxamide], the Kd in assay [1] is at most 100 nM. In addition, the IC50 in assay [2] was at most 500 nM.

In the case of `CNc1ncc(-c2nc3cc(N4CC(OC)C4)ccc3o2)c2cc(NC(=O)C3CC3)ncc12` [Example 280, N-(5-(5-(3-methoxyazetidin-1-yl)benzo[d]oxazol-2-y1)-8-(methylamino)-2,7-naphthyridin-3-yl)cyclopropanecarboxamide], the Kd in assay [1] is at most 100 nM. Moreover, the IC50 in assay [2] is at most 500 nM.

Take `CNc1ncc(-c2nc3cc(N4CC[C@@H](OC)C4)ccc3o2)c2cc(NC(=O)C3CC3)ncc12` [Example 281, (R)-N-(5-(5-(3-methoxypyrrolidin-1-yl)benzo[d]oxazol-2-y1)-8-(methylamino)-2,7-naphthyridin-3-yl)cyclopropanecarboxamide]: in assay [1], the Kd was at most 100 nM. For the same compound, the IC50 in assay [2] was at most 500 nM.

As for `CNc1ncc(-c2nc3cc(N4CC[C@H](OC)C4)ccc3o2)c2cc(NC(=O)C3CC3)ncc12` [Example 282, (S)-N-(5-(5-(3-methoxypyrrolidin-1-yl)benzo[d]oxazol-2-y1)-8-(methylamino)-2,7-naphthyridin-3-yl)cyclopropanecarboxamide], the Kd in assay [1] was at most 100 nM. Besides, the IC50 in assay [2] was at most 500 nM.

As for `CNc1ncc(-c2nc3cc(N4CC(O)C4)ccc3o2)c2cc(NC(=O)C3CC3)ncc12` [Example 283, N-(5-(5-(3-hydroxyazetidin-1-yl)benzo[d]oxazol-2-y1)-8-(methylamino)-2,7-naphthyridin-3-yl)cyclopropanecarboxamide], the Kd in assay [1] was at most 100 nM. In addition, the IC50 in assay [2] was at most 500 nM.

Regarding `CNc1ncc(-c2nc3cc(N4CC(F)C4)ccc3o2)c2cc(NC(=O)C3CC3)ncc12` [Example 284, N-(5-(5-(3-fluoroazetidin~1-yl)benzo[d]oxazol-2-y1)-8-(methylamino)-2,7-naphthyridin-3-yl)cyclopropanecarboxamide], in assay [1], the Kd was at most 100 nM. For the same compound, the IC50 in assay [2] is at most 500 nM.

On to `CNc1ncc(-c2nc3cc(N4CC5COCC(C5)C4)ccc3o2)c2cc(NC(=O)C3CC3)ncc12` [Example 285, N-(5-(5-(3-oxa~7-azabicyclo[3.3.1]nonan-7-yl)benzo[d]oxazol-2-yl)-8-(methylamino)-2,7-naphthyridin-3-yl)cyclopropanecarboxamide], for which the Kd in assay [1] was at most 100 nM. For the same compound, the IC50 in assay [2] was at most 500 nM.

With `CNc1ncc(-c2nc3cc(N4CC(C)(OC)C4)ccc3o2)c2cc(NC(=O)C3CC3)ncc12` [Example 286, N-(5-(5-(3-methoxy-3-methylazetidin-1-yl)benzo[d]oxazol-2-yl)-8-(methylamino)-2,7-naphthyridin-3-yl)cyclopropanecarboxamide], the Kd in assay [1] is at most 100 nM. Besides, in assay [2], the IC50 was at most 500 nM.

In the case of `CNc1ncc(-c2nc3cc(N4CC(N(C)C)C4)ccc3o2)c2cc(NC(=O)C3CC3)ncc12` [Example 287, N-(5-(5-(3-(dimethylamino)azetidin-1-yl)benzo[d]oxazol-2-y1)-8-(methylamino)-2,7-naphthyridin-3-yl)cyclopropanecarboxamide], in assay [1], the Kd was at most 100 nM. Further, the IC50 in assay [2] was at most 500 nM.

Consider `CNc1ncc(-c2nc3cc(N4CC(C)(C)C4)ccc3o2)c2cc(NC(=O)C3CC3)ncc12` [Example 288, N-(5-(5-(3,3-dimethylazetidin-1-yl)benzo[d]oxazol-2-y1)-8-(methylamino)-2,7-naphthyridin-3-yl)cyclopropanecarboxamide], for which, in assay [1], the Kd was at most 100 nM. Also, the IC50 in assay [2] was at most 500 nM.

Regarding `CNc1ncc(-c2nc3cc(N4CCO[C@@H](C)C4)ccc3o2)c2cc(NC(=O)C3CC3)ncc12` [Example 289, (S)—N-(8-(methylamino)-5-(5-(2-methylmorpholino)benzo[d]oxazol-2-yl)-2,7-naphthyridin-3-yl)cyclopropanecarboxamide], in assay [1], the Kd is at most 100 nM. For the same compound, in assay [2], the IC50 was at most 500 nM.

Take `CNc1ncc(-c2nc3cc(N4CCC[C@@H](OC)C4)ccc3o2)c2cc(NC(=O)C3CC3)ncc12` [Example 290, (R)-N-(5-(5-(3-methoxypiperidin-1-yl)benzo[d]oxazol-2-yl)-8-(methylamino)-2,7-naphthyridin-3-yl)cyclopropanecarboxamide]: the Kd in assay [1] was at most 100 nM. For the same compound, the IC50 in assay [2] is at most 500 nM.

As to `CNc1ncc(-c2nc3cc(N4CCC[C@H](OC)C4)ccc3o2)c2cc(NC(=O)C3CC3)ncc12` [Example 291, (S)-N-(5-(5-(3-methoxypiperidin-1-yl)benzo[d]oxazol-2-y1)-8-(methylamino)-2,7-naphthyridin-3-yl)cyclopropanecarboxamide], the Kd in assay [1] is at most 100 nM. In addition, in assay [2], the IC50 was at most 500 nM.

Turning to `CNc1ncc(-c2nc3cc(N4CCC[C@@H](C#N)C4)ccc3o2)c2cc(NC(=O)C3CC3)ncc12` [Example 292, (R)-N-(5-(5-(3-cyanopiperidin-1-yl)benzo[d]oxazol-2-y1)-8-(methylamino)-2,7-naphthyridin-3-yl)cyclopropanecarboxamide], in assay [1], the Kd is at most 100 nM. For the same compound, the IC50 in assay [2] was at most 500 nM.

Regarding `CNc1ncc(-c2nc3cc(N4CCC[C@H](C#N)C4)ccc3o2)c2cc(NC(=O)C3CC3)ncc12` [Example 293], the Kd in assay [1] was at most 100 nM. Besides, the IC50 in assay [2] is at most 500 nM.

`CNc1ncc(-c2nc3cc(NCCOC)ccc3o2)c2cc(NC(=O)C3CC3)ncc12` [Example 294, N-(5-(5-((2-methoxyethyl)amino)benzo[d]oxazol-2-yl)-8-(methylamino)-2,7-naphthyridin-3-yl)cyclopropanecarboxamide]: in assay [1], the Kd is at most 100 nM. The IC50 in assay [2] was at most 500 nM.
